Consider 19 sequences from patent US9340577B2, “HLA binding motifs and peptides and their uses” (priority 1992, dated 2016).

Read-outs that look alike come from different tables or passages of the source. No end group written: not given here. A value given as a limit tells only on which side of the number the result lay.

What all share (assay): biochemical
The target of assay [1] is DRB1*1501 (Homo sapiens, UniProt P01903+P01911). The assay is classed as binding.
Assay [2] has as its target DRB1*1302 (Homo sapiens, UniProt P01903+P01911, A100E/A169T/K41T/L162R/M171V/P40S/Q125H/Q178H/Q39Y/Q99D/R42S/S66N/T262R/V115G/W38E/Y61H). The assay is classed as binding.
In assay [3] the target is DRB5*0101 (Homo sapiens, UniProt P01903+Q30154).
Assay [4] addresses DRB1*0802 (Homo sapiens, UniProt P01903+P01911, A100R/A103L/A169T/F76Y/H45Y/I96F/K41T/L162R/M171V/P40S/Q125H/Q178H/Q39Y/Q99D/R218S/R42G/S66Y/V115G/W38E). The class given is binding.
Assay [5] addresses DRB4*0101 (Homo sapiens, UniProt P01903+P13762, G164S). The class given is binding.
The target in assay [6] is DRB1*1101 (Homo sapiens, UniProt P01903+P01911, A100R/A169T/A87E/I96F/K41T/L162R/M171V/P40S/Q125H/Q178H/Q39Y/Q99D/R42S/S66Y/T262R/V115G/W38E). Conditions: Binding affinity DRB1 *1101.
Assay [7] concerns the target DRB1*0901 (Homo sapiens, UniProt P01903+P01911, A100R/A103E/D57H/D86V/F55Y/F60I/F76Y/I96F/K127E/L162R/M171V/P40D/Q125H/Q99R/R33Q/R42F/S133A/S66N/T210M/V115G/W38K/Y107V/Y59G/Y89S). The class given is binding.
Assay [8] concerns the target DR4w4 (DRB1*0401) (Homo sapiens, UniProt P01903+P01911, A100K/A169T/F76Y/I96L/K127E/L162R/M171V/N62H/P40V/Q125Y/R42H/S133A/S149N/S66Y/V115G/V209L/W38E). The assay is classed as binding.
The target of assay [9] is DRB1*0405 (Homo sapiens, UniProt P01903+P01911, A100R/A169T/D86S/F76Y/I96L/K127E/L162R/M171V/N62H/P40V/Q125Y/R42H/S133A/S149N/S66Y/V115G/V209L/W38E). The class given is binding.
For assay [10], the target named is DR1 (DRB1*0101) (Homo sapiens, UniProt P01903+P01911, A100R/D57E/F55L/F60I/F76Y/I96L/L162R/M171V/P40L/Q125E/R42F/V115G/Y59C). The assay is classed as binding.
Assay [11] deals with DR7 (DRB1*0701) (Homo sapiens, UniProt P01903+P01911, A100R/A102G/A103Q/D57E/D86V/E43K/F76Y/K127E/L162R/M171V/P40G/Q125H/Q99D/R33Q/R42Y/R54Q/S133A/S66F/T210M/V115G/Y107V/Y59L/Y89S). The class given is binding.

DRB1*1302, sequence (P01903 26-254 limits assumed, other chains not shown): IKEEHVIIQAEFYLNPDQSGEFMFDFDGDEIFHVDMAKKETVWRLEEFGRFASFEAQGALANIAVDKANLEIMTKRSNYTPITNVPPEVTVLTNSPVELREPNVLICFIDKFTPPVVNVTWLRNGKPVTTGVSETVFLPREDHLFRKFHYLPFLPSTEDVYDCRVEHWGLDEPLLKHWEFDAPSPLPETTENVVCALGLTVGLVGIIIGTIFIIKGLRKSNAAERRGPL
DRB1*1101, sequence (P01903 26-254 limits assumed, other chains not shown): as above

The term IC50 denotes the concentration that gives 50% inhibition. A lower IC50 goes with higher potency. As for IAYYYAQLADSNSNA [Peptide 89.0072], the IC50 in assay [1] is 0.097 µM; in assay [2], over 20 µM; in assay [3] (Binding affinity DRB5 *0101) it was over 20 µM; in assay [4], 7.81 µM; in assay [5], 2.39 µM; in assay [6] it was over 20 µM. Besides, the IC50 in assay [7] is 3.09 µM; in [8], 0.753 µM; in assay [9] it was 4.87 µM; in [10] it was 0.382 µM.

For LIQLKCPPILLTTNI [Peptide 89.0038], the IC50 is 6.8 µM in [1]; over 20 µM in assay [2]; over 20 µM in [3] (Binding affinity DRB5 *0101); 0.158 µM in assay [5]; over 20 µM in [6]; over 20 µM in [7]. Besides, the IC50 stood at 0.99 µM in assay [11], 3.8 µM in assay [8], 3.95 µM in assay [9] and 0.015 µM in [10].

As to FQVIELQMALETLSK [Peptide 89.0182], the IC50 in assay [1] is 14 µM; in assay [2] it was over 20 µM; in [4] it was over 20 µM; in assay [5], over 20 µM; in assay [6], 2.11 µM; in assay [7], 0.751 µM. Besides, the IC50 in [11] is 0.183 µM; in assay [8] it was 0.224 µM; in assay [9] it was 0.232 µM; in [10], 1.01 µM.

For ELQMALETLSKSQYS [Peptide 89.0183], the IC50 was 4.3 µM in assay [2]; 10.6 µM in assay [3] (Binding affinity DRB5 *0101); over 20 µM in [5]; 0.204 µM in assay [7]; 3.14 µM in assay [11]; 0.434 µM in assay [8]. In addition, the IC50 in assay [9] is 3.29 µM; in [10] it was 0.08 µM.

With YFKLFLQGTPKHNCL [Peptide 89.0133], the IC50 in assay [1] is over 20 µM; in assay [2], 0.193 µM; in assay [3] (Binding affinity DRB5 *0101), over 20 µM; in assay [4] it was over 20 µM; in assay [5], 0.081 µM; in assay [7], over 20 µM. The IC50 was over 20 µM in assay [11], 0.109 µM in assay [8], 6.12 µM in assay [9] and over 20 µM in assay [10].

With RDSVDSAPILTAFNS [Peptide 89.0156], the IC50 in [1] was 4.84 µM; in [2], 0.025 µM; in assay [3] (Binding affinity DRB5 *0101) it was over 20 µM; in assay [4], over 20 µM; in assay [5], 1.31 µM; in assay [6], 7.05 µM. In addition, the IC50 in assay [11] is 0.335 µM; in assay [8], 0.02 µM; in assay [9] it was over 20 µM; in assay [10], 7.45 µM.

On to ILLYGAANTGKSLFG [Peptide 89.0018], for which the IC50 in assay [2] is 2.69 µM; in assay [3] (Binding affinity DRB5 *0101) it was 1.58 µM; in [4], 1.75 µM; in [5] it was 5.06 µM; in assay [6] it was 2.76 µM; in assay [7] it was over 20 µM. Further, the IC50 was 6.13 µM in assay [11], 0.15 µM in assay [8], over 20 µM in assay [9] and 0.23 µM in assay [10].

In the case of LNTVKIPPTVQISTG [Peptide 90.0028], the IC50 is 0.778 µM in assay [2]; over 20 µM in [3] (Binding affinity DRB5 *0101); over 20 µM in assay [4]; over 20 µM in assay [5]; over 20 µM in assay [6]; 6.92 µM in assay [7]. The IC50 in assay [11] is over 20 µM; in assay [8], over 20 µM; in assay [9] it was over 20 µM; in assay [10], 8.74 µM.

In the case of TYGVSFMELVRPFKS [Peptide 89.0095], the IC50 in assay [1] was 0.592 µM; in assay [2] it was 0.598 µM; in [3] (Binding affinity DRB5 *0101), 9.07 µM; in assay [4], over 20 µM; in [5] it was 0.389 µM; in assay [7], over 20 µM. Moreover, the IC50 in assay [11] was 7.57 µM; in assay [8] it was over 20 µM; in assay [9] it was over 20 µM.

Take SRVIVCPTSIPSDQI [Peptide 90.0027]: the concentration for half-maximal inhibition (IC50) in [1] was over 20 µM; in assay [2] it was 2 µM; in [3] (Binding affinity DRB5 *0101) it was over 20 µM; in assay [5], over 20 µM; in assay [6], over 20 µM; in assay [7], over 20 µM. The IC50 is over 20 µM in assay [11], 1.91 µM in assay [8], 6.14 µM in [9] and over 20 µM in [10].

Turning to QEQMLIQPPKIRSPA [Peptide 89.0124], the IC50 is over 20 µM in assay [1]; over 20 µM in assay [2]; over 20 µM in assay [4]; 1.64 µM in assay [5]; 7.22 µM in [11]; 0.991 µM in assay [8]. Further, the IC50 is 8.05 µM in [9] and over 20 µM in [10].

Take ETHMVIEPPKLRSAT [Peptide 89.0103]: the IC50 in assay [2] is 1.46 µM; in assay [3] (Binding affinity DRB5 *0101) it was 2.87 µM; in assay [4], 12.2 µM; in [5] it was 3.91 µM; in assay [6] it was 3.26 µM; in assay [7], over 20 µM. Further, the values for the IC50 in assay [11], in [8] and in assay [9] were over 20 µM, 0.778 µM and 3.54 µM, respectively.

Turning to LVQLKCPPLLLTSNT [Peptide 89.0077], the IC50 was 0.774 µM in [1]; 2 µM in assay [2]; 4.49 µM in assay [3] (Binding affinity DRB5 *0101); 0.307 µM in assay [5]; 17.6 µM in assay [6]; 11.7 µM in assay [7]. Further, the IC50 in [11] was found to be 1.09 µM; in assay [8], 4.03 µM; in assay [9], 3.5 µM; in [10] it was 0.051 µM.

In the case of ESDMAFQYAQLADCN [Peptide 89.0085], the IC50 stood at 7.42 µM in assay [1]; 0.224 µM in assay [2]; 7.69 µM in assay [3] (Binding affinity DRB5 *0101); 5.92 µM in assay [4]; 0.048 µM in [5]; 20 µM in [6]. Also, the IC50 is 3.25 µM in [11], 0.233 µM in assay [8], 19.7 µM in assay [9] and 0.011 µM in assay [10].

LKEFLKGTPKKNCIL [Peptide 89.0086]: the IC50 was found to be 7.81 µM in [1]; 6.61 µM in [2]; 4.66 µM in assay [3] (Binding affinity DRB5 *0101); 3.2 µM in assay [4]; 2.41 µM in assay [5]; 11.9 µM in assay [7]. Moreover, the IC50 in [11] was 5.43 µM; in [8], 1.62 µM; in [9], 14.9 µM.

Turning to HQVVPPMAVSKAKAC [Peptide 90.0012], the IC50 in [1] was over 20 µM; in [2], 0.908 µM; in [3] (Binding affinity DRB5 *0101), 5.79 µM; in [5], 0.645 µM; in assay [6] it was 7.01 µM; in assay [11], 0.434 µM. The figures for the IC50 in assay [8], in [9] and in assay [10] were 2.34 µM, over 20 µM and 0.68 µM, respectively.

As for HALFTAQEAKQHRDA [Peptide 89.0001], the IC50 in [1] is over 20 µM; in assay [2], over 20 µM; in assay [3] (Binding affinity DRB5 *0101) it was 7.16 µM; in assay [5], over 20 µM; in [6] it was over 20 µM; in assay [7], over 20 µM. For the same sequence, the IC50 in assay [11] is over 20 µM; in [8] it was 0.205 µM; in assay [9] it was 4.75 µM.

Consider CWTYFDNYMRNALDG [Peptide 89.0090], for which the IC50 is over 20 µM in assay [2]; 3.69 µM in assay [4]; 2.04 µM in [5]; over 20 µM in assay [6]; over 20 µM in assay [7]; 2.91 µM in [11]. Also, the IC50 in assay [8] amounted to 3.59 µM; in assay [9] it was 4.88 µM.

On to QQLLQVQTAHADKQT [Peptide 89.0115], for which the IC50 was 10.5 µM in assay [1]; over 20 µM in assay [2]; 0.086 µM in [3]; over 20 µM in assay [4]; 0.932 µM in assay [5]; over 20 µM in [7]. In addition, the IC50 in assay [11] is over 20 µM; in [8], 5.5 µM; in assay [9], over 20 µM; in assay [10], 1.11 µM.
